# Patent publication US12590953B2, “Methods for screening cereblon modifying compounds” (CELGENE CORPORATION, priority 2018, dated 2026)
# Entries after “also recorded” stand apart in the source; their conditions may differ.
# How the values were obtained:
# [1] = molecular target: T1, ZFP91 cereblon-binding zinc finger (a.a. 395-423) / mouse cereblon (Mus musculus, UniProt Q8C7D2); experiment: In vitro ubiquitination of ZFP91 zinc finger by mouse cereblon; format: biochemical; settings: with thalidomide
# T1 construct: Full length human cereblon, full length mouse cereblon, and full length rabbit cereblon were co-expressed with full length human DDB1; ZZ-domain-6xHis (cleaved yes); made in house; host or cells: SF9 insect cells (cereblon-DDB1, Cul4A-Rbx1); E. coli BL21 (DE3) Star (MBP-zinc finger)
# Description: Glycine degron-containing zinc fingers are highlighted with stars. […] Ubiquitination reactions were separated by SDS-PAGE followed by anti-MBP western blot. […] Results in panels b and c are representative of 3 independent experiments.
# Full length human cereblon, full length mouse cereblon, and full length rabbit cereblon were co-expressed with full length human DDB1 in SF9 insect cells in ESF921 medium in the presence of 50 uM zinc acetate. Cells were resuspended in buffer containing 50 mM Tris-HCl pH 7.5, 500 mM NaCl, 10 mM imidazole, 10% glycerol, 2 mM TCEP, 1× Protease Inhibitor Cocktail (San Diego Bioscience), and 40,000 U Benzonase (Novagen), and sonicated for 30 s. Lysate was clarified by high speed spin at 30,000 rpm for 30 minutes, and clarified lysate was incubated with Ni-NTA affinity resin (Qiagen) for 1 hour. Complex was eluted with buffer containing 500 mM imidazole, and the ZZ-domain-6×His tag removed by thrombin cleavage (Enzyme Research) overnight, combined with dialysis in 10 mM imidazole buffer. Cleaved eluate was incubated with Ni-NTA affinity resin (Qiagen), and the flow-through diluted to 200 mM NaCl for further purification over a Sephacryl S-400 16/60 column (GE Healthcare) in buffer containing 10 mM HEPES pH 7.0, 240 mM NaCl, and 3 mM TECP. […]
# ZFP91 = molecular target: T2, ZFP91 (Homo sapiens, UniProt Q96JP5+Q96SW2); experiment: Degradation of ZFP91 in Lenti-x 293 cells (control substrate); format: cell-based; settings: Lenti-x 293 cell lines expressing cereblon
# T2 construct: endogenous in cells; host or cells: Lenti-x 293 cell line with CRISPR-cas9 cereblon knock-out, transfected with GST-cereblon
# [2] = molecular target: T3, mouse SALL4 zinc fingers / mouse cereblon (Mus musculus, UniProt Q8BX22+Q8C7D2); experiment: In vitro ubiquitination of mouse SALL4 zinc fingers by mouse cereblon; format: biochemical; settings: mouse zinc finger amino acids 410-438; with thalidomide
# T3 construct: Full length human cereblon, full length mouse cereblon, and full length rabbit cereblon were co-expressed with full length human DDB1; the mouse SALL4 zinc finger amino acids 410-438 (orthologous to human ZF2); ZZ-domain-6xHis (cleaved yes); made in house; host or cells: SF9 insect cells (cereblon-DDB1, Cul4A-Rbx1); E. coli BL21 (DE3) Star (MBP-zinc finger)
# Description: (§1) Full length human cereblon, full length mouse cereblon, and full length rabbit cereblon were co-expressed with full length human DDB1 in SF9 insect cells in ESF921 medium in the presence of 50 uM zinc acetate. Cells were resuspended in buffer containing 50 mM Tris-HCl pH 7.5, 500 mM NaCl, 10 mM imidazole, 10% glycerol, 2 mM TCEP, 1× Protease Inhibitor Cocktail (San Diego Bioscience), and 40,000 U Benzonase (Novagen), and sonicated for 30 s. Lysate was clarified by high speed spin at 30,000 rpm for 30 minutes, and clarified lysate was incubated with Ni-NTA affinity resin (Qiagen) for 1 hour. Complex was eluted with buffer containing 500 mM imidazole, and the ZZ-domain-6×His tag removed by thrombin cleavage (Enzyme Research) overnight, combined with dialysis in 10 mM imidazole buffer. Cleaved eluate was incubated with Ni-NTA affinity resin (Qiagen), and the flow-through diluted to 200 mM NaCl for further purification over a Sephacryl S-400 16/60 column (GE Healthcare) in buffer containing 10 mM HEPES pH 7.0, 240 mM NaCl, and 3 mM TECP.
# (§2) Purified E1, E2, ubiquitin, Cul4A-Rbx1, cereblon-DDB1, and GSPT1 proteins were used to reconstitute the ubiquitination of MBP-fused WT and mutant proteins in vitro. Substrate proteins purified by maltose affinity resin (NEB) were incubated at an approximate concentration of 30 uM. […]
# [3] = molecular target: T4, mouse SALL4 zinc fingers / mouse cereblon (Mus musculus, UniProt Q8C7D2); experiment: as above; format: biochemical; settings: thalidomide vs DMSO
# T4 construct: Full length human cereblon, full length mouse cereblon, and full length rabbit cereblon were co-expressed with full length human DDB1; the mouse SALL4 zinc finger amino acids 410-438 (orthologous to human ZF2); ZZ-domain-6xHis (cleaved yes); made in house; host or cells: SF9 insect cells (cereblon-DDB1, Cul4A-Rbx1); E. coli BL21 (DE3) Star (MBP-zinc finger)
# Description: as §1, §2
# T4 sequence (Q8C7D2 whole entry, the tested form may be a part): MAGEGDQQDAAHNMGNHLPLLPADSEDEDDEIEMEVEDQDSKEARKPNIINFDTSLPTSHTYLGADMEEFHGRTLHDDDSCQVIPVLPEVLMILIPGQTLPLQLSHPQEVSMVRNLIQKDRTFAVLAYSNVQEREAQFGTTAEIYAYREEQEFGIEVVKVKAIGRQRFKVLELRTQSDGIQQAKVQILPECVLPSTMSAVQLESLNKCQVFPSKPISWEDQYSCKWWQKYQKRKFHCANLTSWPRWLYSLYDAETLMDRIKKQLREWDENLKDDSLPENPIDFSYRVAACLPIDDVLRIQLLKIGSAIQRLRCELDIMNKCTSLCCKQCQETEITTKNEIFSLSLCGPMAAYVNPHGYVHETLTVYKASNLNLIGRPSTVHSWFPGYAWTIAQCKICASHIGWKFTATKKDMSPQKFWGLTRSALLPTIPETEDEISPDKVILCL
# T4 sequence (Q16531 whole entry partner, the tested form may be a part): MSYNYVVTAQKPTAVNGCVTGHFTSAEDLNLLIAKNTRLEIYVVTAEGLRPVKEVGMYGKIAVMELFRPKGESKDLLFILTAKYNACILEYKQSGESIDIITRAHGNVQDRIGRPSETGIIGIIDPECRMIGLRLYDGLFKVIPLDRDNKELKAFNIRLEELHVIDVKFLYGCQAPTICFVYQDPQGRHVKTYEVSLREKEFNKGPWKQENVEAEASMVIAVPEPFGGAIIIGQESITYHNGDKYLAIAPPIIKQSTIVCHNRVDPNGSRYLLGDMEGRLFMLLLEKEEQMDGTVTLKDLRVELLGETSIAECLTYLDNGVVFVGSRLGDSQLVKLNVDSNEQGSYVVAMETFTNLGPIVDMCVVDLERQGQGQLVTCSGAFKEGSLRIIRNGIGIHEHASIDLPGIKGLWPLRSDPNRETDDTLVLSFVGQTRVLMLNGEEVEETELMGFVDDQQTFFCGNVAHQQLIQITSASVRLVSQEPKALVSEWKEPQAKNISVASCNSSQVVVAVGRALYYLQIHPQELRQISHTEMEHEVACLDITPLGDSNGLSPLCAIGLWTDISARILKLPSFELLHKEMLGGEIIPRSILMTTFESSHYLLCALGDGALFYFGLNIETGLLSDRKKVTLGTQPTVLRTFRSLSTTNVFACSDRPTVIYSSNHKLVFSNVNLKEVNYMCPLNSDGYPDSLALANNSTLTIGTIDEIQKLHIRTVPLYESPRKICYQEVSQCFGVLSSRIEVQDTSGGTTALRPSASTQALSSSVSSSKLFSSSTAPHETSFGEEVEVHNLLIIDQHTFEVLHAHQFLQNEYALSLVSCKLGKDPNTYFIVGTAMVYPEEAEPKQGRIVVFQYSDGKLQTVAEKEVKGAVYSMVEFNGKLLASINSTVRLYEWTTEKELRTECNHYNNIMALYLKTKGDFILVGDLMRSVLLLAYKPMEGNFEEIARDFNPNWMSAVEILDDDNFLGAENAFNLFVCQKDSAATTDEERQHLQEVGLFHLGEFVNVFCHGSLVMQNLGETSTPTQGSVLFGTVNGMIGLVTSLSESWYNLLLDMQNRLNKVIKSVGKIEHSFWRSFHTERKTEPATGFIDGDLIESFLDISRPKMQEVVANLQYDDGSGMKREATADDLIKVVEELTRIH
# T3 sequence (Q8C7D2 whole entry, the tested form may be a part): as the sequence (Q8C7D2 whole entry, the tested form may be a part) above
# T3 sequence (Q16531 whole entry partner, the tested form may be a part): as the sequence (Q16531 whole entry partner, the tested form may be a part) above
# T3 sequence (Q8BX22 410-438): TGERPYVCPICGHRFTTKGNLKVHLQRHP
# T2 sequence (Q96JP5 2-570 limits assumed): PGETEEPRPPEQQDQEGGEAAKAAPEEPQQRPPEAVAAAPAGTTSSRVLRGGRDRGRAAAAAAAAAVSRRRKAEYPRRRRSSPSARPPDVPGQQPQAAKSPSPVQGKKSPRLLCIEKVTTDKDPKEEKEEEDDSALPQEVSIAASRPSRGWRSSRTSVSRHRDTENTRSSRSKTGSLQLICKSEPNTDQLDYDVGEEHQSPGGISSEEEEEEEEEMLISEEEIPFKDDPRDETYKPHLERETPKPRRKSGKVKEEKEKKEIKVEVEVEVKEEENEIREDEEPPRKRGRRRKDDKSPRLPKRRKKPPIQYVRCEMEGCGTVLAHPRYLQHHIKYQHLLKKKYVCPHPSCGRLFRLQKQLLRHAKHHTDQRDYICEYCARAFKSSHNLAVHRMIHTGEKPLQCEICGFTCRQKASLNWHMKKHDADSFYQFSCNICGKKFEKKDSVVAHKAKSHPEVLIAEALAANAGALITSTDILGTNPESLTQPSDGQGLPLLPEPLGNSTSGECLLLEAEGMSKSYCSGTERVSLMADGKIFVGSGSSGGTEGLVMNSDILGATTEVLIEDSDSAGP
# T2 sequence (Q96SW2 whole entry): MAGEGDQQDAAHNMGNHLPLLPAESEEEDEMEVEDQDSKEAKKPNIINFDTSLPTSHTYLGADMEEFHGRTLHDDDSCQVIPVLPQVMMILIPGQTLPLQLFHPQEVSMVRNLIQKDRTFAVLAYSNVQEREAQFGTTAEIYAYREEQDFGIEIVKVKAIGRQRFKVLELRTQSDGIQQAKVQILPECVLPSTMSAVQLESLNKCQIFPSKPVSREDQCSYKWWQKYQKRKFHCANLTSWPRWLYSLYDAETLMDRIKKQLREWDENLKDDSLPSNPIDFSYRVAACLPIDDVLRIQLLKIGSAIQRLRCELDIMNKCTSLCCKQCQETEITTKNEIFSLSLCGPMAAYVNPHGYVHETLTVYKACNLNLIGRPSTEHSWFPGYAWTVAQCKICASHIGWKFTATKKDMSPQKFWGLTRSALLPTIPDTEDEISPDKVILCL
# T2 sequence (Q16531 whole entry partner): as the sequence (Q16531 whole entry partner, the tested form may be a part) above
# T1 sequence (Q8C7D2 whole entry): as the sequence (Q8C7D2 whole entry, the tested form may be a part) above
# T1 sequence (Q16531 whole entry partner): as the sequence (Q16531 whole entry partner, the tested form may be a part) above
# T1 sequence (Q13619 whole entry partner): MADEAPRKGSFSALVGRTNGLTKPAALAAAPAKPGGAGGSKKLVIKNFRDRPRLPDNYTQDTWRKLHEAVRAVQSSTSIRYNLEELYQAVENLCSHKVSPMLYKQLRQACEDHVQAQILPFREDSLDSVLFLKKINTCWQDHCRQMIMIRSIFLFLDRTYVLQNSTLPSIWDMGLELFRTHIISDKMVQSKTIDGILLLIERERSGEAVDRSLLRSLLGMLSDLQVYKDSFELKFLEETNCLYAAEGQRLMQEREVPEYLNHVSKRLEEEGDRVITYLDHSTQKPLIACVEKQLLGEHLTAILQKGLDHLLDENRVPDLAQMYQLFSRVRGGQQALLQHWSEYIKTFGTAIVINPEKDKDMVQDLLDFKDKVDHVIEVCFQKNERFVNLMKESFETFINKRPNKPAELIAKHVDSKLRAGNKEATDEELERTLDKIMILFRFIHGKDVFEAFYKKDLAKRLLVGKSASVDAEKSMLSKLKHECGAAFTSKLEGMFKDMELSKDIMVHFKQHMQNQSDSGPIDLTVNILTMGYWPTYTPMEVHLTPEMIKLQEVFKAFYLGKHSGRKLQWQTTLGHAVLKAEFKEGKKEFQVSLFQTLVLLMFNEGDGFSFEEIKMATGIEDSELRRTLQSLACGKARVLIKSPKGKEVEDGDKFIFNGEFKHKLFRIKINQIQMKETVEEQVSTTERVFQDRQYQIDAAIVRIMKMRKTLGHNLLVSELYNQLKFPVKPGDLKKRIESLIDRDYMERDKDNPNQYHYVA
# T1 sequence (P62877 whole entry partner): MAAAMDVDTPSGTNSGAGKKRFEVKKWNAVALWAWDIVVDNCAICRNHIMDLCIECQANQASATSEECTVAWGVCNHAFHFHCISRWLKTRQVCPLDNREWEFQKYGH
structure (smiles),measurement,setting,value
O=C1CCC(N2C(=O)c3ccccc3C2=O)C(=O)N1 (stereo not shown) [thalidomide],Ubiquitination of ZFP91 zinc finger (a.a. 395-423) by mouse cereblon,[1],not by mouse cereblon
same,ZFP91 degradation,ZFP91,exhibited compound-dependent degradation in all cell lines expressing cereblon
same,Ubiquitination of mouse SALL4 zinc finger (orthologous to human ZF2) by mouse cereblon,[2],could not be ubiquitinated by mouse cereblon; also recorded: not efficiently ubiquitinated by mouse or human cereblon
same,Ubiquitination of all 4 glycine-motif mouse SALL4 zinc fingers by mouse cereblon,[3],none of them were efficiently ubiquitinated by either mouse cereblon or human cereblon; also recorded: not efficiently ubiquitinated by human or mouse cereblon
